Some results are limits rather than exact numbers.

In one experiment the test system is HL-60 (FLT3-wt). Briefly: Cell proliferation assay (CellTiter-Glo). Type of experiment: cell-based, human. The conditions noted are these: 72 hours. As for the experimental part: (§1) Cells were grown in 96-well culture plates (3000/well). […] Cell proliferation was determined after 72 hours drug treatment. […] Cell viability was measured with the CellTiter–Glo assay (Promega, USA), according to the manufacturer's instructions, and luminescence was measured in a multi-label reader (Envision, PerkinElmer, USA). […] GI50 values were calculated using Prism 5.0 (GraphPad Software, San Diego, CA).
On the technique in general: In ATP-based viability assays light output follows the ATP content of the culture.

For another experiment, the system named is SKM-1 (FLT3-wt). Briefly: Cell proliferation assay (CellTiter-Glo). The class given is cell-based, human. The conditions noted are these: 72 hours. As for the experimental part:
as §1

The subject of a further experiment is PF-382 (FLT3-wt). The experiment in a line: cells. Type of experiment: cell-based. The conditions noted are these: 72 hours. The method, then: as §1
Experiment [1] deals with FLT3-ITD (ITD+kinase domain). Briefly: ADP-Glo biochemical assay. The conditions noted are these: ATP final 50 μM. The method, then:
FLT3 wt/FLT3-ITD/FLT3-D835Y cytoplasmic fragment with his tag was cloned into baculovirus expression vector pFASTHT-A. The recombinant bacmid was transfected into SF9 by Cellfectin (Invitrogen). High titer viral stocks were obtained by two rounds of amplification of the virus. The protein was expressed by infecting SF9 cells with high titer viral stocks for 48 h. Cells were harvested and re-suspended in lysis buffer (50 mM Tris pH 7.5, 150 mM NaCl, and 1 mM PMSF). The cells were lysed by ultra sonication and the cell debris was removed by ultracentrifugation. The supernatant was incubated with Ni-affinity beads (GE). The beads were then washed by lysis buffer containing 50–250 mM imidazole. The elute was loaded to superdex 75. The protein was concentrated to 1 mg/ml and aliquots were frozen and stored at −80°C. The protein was used for ADP-Glo™ kinase assay.
The reaction in each tube was started immediately by adding ATP and kept going for an hour under 37°C. After the tube cooled for 5 minutes at room temperature, 5 μL solvent reactions were carried out in a 384-well plate. […] At the end, 10 μL of kinase detection reagent was added into the well and incubated for 30 minutes to produce a luminescence signal. Luminescence signal was measured with an automated plate reader (Perkin-Elmer Envision) and each measurement was performed in triplicate.
A general note: ADP-Glo first removes unused ATP, then detects ADP through luciferase.

The test system of experiment [2] is FLT3-ITD mediated signaling in MOLM14 and MV4-11 cell lines. Briefly: Signaling pathway effect examination (immunoblot). Type of experiment: cell-based, human. The conditions noted are these: intact FLT3-ITD-positive cell lines, 4 hours. From the text:
Cells were then washed in PBS and lysed in cell lysis buffer. FLT3, Phospho-FLT3 (Tyr589/591), AKT, Phospho-AKT Ser473, Phospho-AKT Thr308, GSK-3β, Phospho-GSK-3β (Ser9), Phospho-FoxO1 (Thr24), FoxO1, PRAS40, Phospho-PRAS40 (Thr246), STAT5, Phospho-STAT5 (Tyr694), NF-ΚB-P65, Phospho-NF-ΚB-P65 (Ser536), P70S6K, Phospho-P70S6K Thr389, 4EBP1, Phospho-4EBP1 (Thr37/46), ERK, Phospho-p44/42MAPK (Erk1/2) (Thr202/Tyr204), C-Myc and GAPDH antibodies (Cell Signaling Technology) were used for immunoblotting.
A general note: A western blot detects proteins with antibodies after separation by electrophoresis.

In a further experiment the test system is FLT3-ITD. Briefly: Kinase kinetic assay (ADP-Glo, varied ATP). Type of experiment: biochemical. The conditions noted are these: range of ATP concentrations. As for the experimental part: Kinetic analyses of FLT3-ITD were performed using a luminometric kinase assay varying the concentration of ATP using the ADP-Glo reagents (Promega). […] After 60 min incubation at RT, various concentrations of ATP, 0.2 μg/μL FLT3 substrate Poly (4:1 Glu, Tyr) peptide added and incubated for 60 min at 37°C. The overall rate of reaction is determined as the slope of the decreasing phase of the reaction. Each data point was collected in duplicate and kinetic parameters were obtained using Prism 5.0 (GraphPad Software, San Diego, CA).

The target of the next experiment is FLT3 wt. Set-up: method as in PMID 22037378. The conditions noted are these: cited from earlier work.

In the case of `Cc1[nH]nc2ccc(-c3cncc(OC[C@@H](N)Cc4ccccc4)c3)cc12` [A674563], the GI50 worked out at 2.6 µM with HL-60 (FLT3-wt), 2 µM in the experiment on SKM-1 (FLT3-wt) and 2.7 µM in the experiment on PF-382 (FLT3-wt). For the same molecule, the IC50 in experiment [1] is 0.134 µM. The “concentration from which auto-phosphorylation of FLT3-ITD at Y589/591 is affected” value in experiment [2] was at least 5 µM. Besides, in experiment [2], the “concentration from which phosphorylation of STAT5 and expression of c-MYC are inhibited” value was at least 0.5 µM. Moreover, the “mode of inhibition (kinetics analysis)” value in the experiment with FLT3-ITD is on record as “ATP competitive inhibitor”. At FLT3 wt, the Kd is 0.54 µM.

By GI50 is commonly meant the concentration at which growth is held to half of that of the control. As a reminder, the IC50 is the concentration that inhibits the measured activity by half. Read a low IC50 as greater potency in that assay. For orientation: Kd means the equilibrium constant for the complex coming apart.
